Read-outs that look alike come from different tables or passages of the source.
Key:
[1] = Toxicity test by oral administration in a rat (LD50, LD10); details: rat, in vivo, po
stomach or intestine [2] = test: Gastrointestinal toxicity: ulcers and hemorrhagic content after one dose of 500 mg/Kg in rats; details: one dose of 500 mg/Kg, 10-rat groups
[3] = Anti-inflammatory activity: edema inhibition (method of Winter, Risley and Nuss); format: in vivo; details: in vivo; LD50 / anti-inflammatory ED50; read-out: anti-inflammatory ED50 times lower than LD50
edema = test: as above; format: in vivo
[4] = Analgesic activity (test by Randall and Salitto); format: in vivo
Protocol: Int. Pharmacodyn 151, 409 (1957). Doses of 200, 300 and 500 mg/Kg. cause 1.43: 1.77 and 2.09 effects over controls.

[5] = Antithermic (antipyretic) activity: yeast extract-induced temperature rise in rabbits; format: in vivo, rabbit
Protocol: Antithermic activity was determined in rabbits, adjusting an endovenous dose of yeast extract to achieve a + 1.7° C rise over the basal temperature of the animal. Three hours after injecting the pyrogenic agent, 200 mg/Kg of the product were administered interperitoneally.

rat [6] = details: in vivo, po
stomach or intestine [7] = details: rat, in vivo, 500 mg/kg
rat [8] = test: Toxicity test by oral administration in a rat (LD50, LD10)
[9] = comparison with aspirin, in words

SMILES: CC(=O)Oc1ccccc1C(=O)O [aspirin]
- LD50 [1]: 978 mg/kg
- rats whose stomachs revealed hemorrhagic content (stomach or intestine [2]): 60%
- ulcers of the stomach or intestine (stomach or intestine [2]): no ulcers

SMILES: CC(=O)Nc1ccc(OCCOC(=O)c2ccccc2OC(C)=O)cc1 [Compound (I), o-acetoxy benzoate ester of 2(p-acetamido-phenyloxy)-ethyl alcohol]
- selectivity ratio [3]: 10
- anti-inflammatory activity relative to aspirin (edema; [9]): as active as aspirin
- anti-inflammatory activity: times less active than indometacine (edema; comparison with indometacine): 33 times
- inhibition at 200 mg/kg (edema; dose 200 mg/Kg): 23%
- inhibition at 400 mg/kg (edema; dose 400 mg/Kg): 31%
- analgesic activity relative to aspirin [4, 9]: equipotential with respect to aspirin
- analgesic effect over controls ([4]; dose 200 mg/Kg): 1.43
- analgesic effect over controls ([4]; dose 300 mg/Kg): 1.77
- analgesic effect over controls ([4]; dose 500 mg/Kg): 2.09
- animal's temperature after administration, for two consecutive hours ([5]; 200 mg/Kg interperitoneally, three hours after pyrogenic agent (+1.7° C rise)): decreased to its basal values
- duration of antipyretic effect relative to aspirin and N-acetyl-p-aminophenol ([5]; in words): longer lasting effects
- LD10 (maximum dose possible to administer) (rat [6]): 7,000 mg/Kg
- gastrointestinal disorders, comparison with aspirin (stomach or intestine [7]): clear differences appear in favor of compound (I) over aspirin
- ulcers of the stomach or intestine (stomach or intestine [7]): no ulcers
- toxicity factor relative to aspirin (rat [8]; factor in favor of product (I) over aspirin): 7
- toxicity relative to aspirin (rat [8]; oral, rat, in words): less toxic than aspirin

SMILES: COc1ccc2c(c1)c(CC(=O)O)c(C)n2C(=O)c1ccc(Cl)cc1 [indometacine, reference compound]
- anti-inflammatory ED50 relative to toxic range (edema; in words): very close to the toxic range

Reference: patent US4014921A, “O-Acetoxy benzoate ester of 2(p-acetamido-phenyloxy)ethyl alcohol” (Alter, S.A., priority 1975, dated 1977)
